Source: patent EP0583821A1, “Atriopeptins, guanylate cyclase activators, and phosphodiesterase inhibitors as treatment for glaucoma, hydrocephalus and cerebral edema (cranial fluid volume dysfunction)” (THE GENERAL HOSPITAL CORPORATION, priority 1987, dated 1988)

Tests used:
[1] = target: T1, guanylate cyclase (Oryctolagus cuniculus, UniProt G1TXB5); assay: rANP activation of membrane-bound guanylate cyclase in purified cerebral microvessels; assay type: biochemical; parameters: tissues were homogenized (10 mg wet weight per milliliter); from tissue; host or cells: rabbit cerebral microvessels, choroid plexus, kidney, ciliary process, pia-arachnoid, cerebellum; 100,000 g P1 pellet; conditions: purified rabbit cerebral microvessels, Fig. 1a
T1 sequence (G1TXB5 28-1056): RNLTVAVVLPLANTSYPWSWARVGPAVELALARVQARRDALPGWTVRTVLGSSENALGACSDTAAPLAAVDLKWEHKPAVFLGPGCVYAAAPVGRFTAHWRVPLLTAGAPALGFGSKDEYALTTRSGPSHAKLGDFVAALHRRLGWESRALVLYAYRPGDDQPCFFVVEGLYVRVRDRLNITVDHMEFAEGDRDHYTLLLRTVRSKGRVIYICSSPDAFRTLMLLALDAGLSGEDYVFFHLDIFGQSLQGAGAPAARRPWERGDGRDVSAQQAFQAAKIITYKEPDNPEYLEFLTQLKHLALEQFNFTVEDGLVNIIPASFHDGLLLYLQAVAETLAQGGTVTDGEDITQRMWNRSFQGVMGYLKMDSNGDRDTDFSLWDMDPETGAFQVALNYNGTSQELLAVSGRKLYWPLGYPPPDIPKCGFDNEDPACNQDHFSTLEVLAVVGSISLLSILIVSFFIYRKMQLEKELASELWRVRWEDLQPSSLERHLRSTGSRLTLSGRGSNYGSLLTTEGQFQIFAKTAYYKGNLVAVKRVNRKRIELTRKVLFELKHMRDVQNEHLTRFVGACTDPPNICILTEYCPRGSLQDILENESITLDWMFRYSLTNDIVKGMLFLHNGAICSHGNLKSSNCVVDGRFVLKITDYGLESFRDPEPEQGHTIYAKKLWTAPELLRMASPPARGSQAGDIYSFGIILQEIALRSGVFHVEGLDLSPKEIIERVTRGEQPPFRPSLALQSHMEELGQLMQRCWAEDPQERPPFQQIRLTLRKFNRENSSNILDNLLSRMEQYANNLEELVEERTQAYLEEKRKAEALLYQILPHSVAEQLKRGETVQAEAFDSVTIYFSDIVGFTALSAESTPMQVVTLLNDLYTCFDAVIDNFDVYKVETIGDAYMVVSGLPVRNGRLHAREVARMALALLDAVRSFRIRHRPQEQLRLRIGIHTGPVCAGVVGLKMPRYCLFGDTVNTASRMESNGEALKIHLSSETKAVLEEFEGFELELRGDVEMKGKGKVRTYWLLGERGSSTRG
Description: (§1) The effect of rANP on membrane-bound guanylate cyclase and adenylate cyclase activity in various brain-barrier tissues and tissue fractions from rabbit was compared with its activity in cerebrum and cerebellum. Guanylate cyclase was measured as the rate of cyclic GMP formation by modifications of the technique of Waldman et al., supra, incorporated herein by reference. Briefly, tissues were homogenized (10 mg wet weight per milliliter) in 50 mM tris-HCl, pH 8.0, 1 mM EDTA, 1 mM dithiothreitol, and 250 mM sucrose and centrifuged at 100,000g to obtain a P1 pellet. Reaction tubes contained (in 0.3 ml), 50 mM tris, pH 7.6, 6 mM MnCl₂, 0.5 mM 3-isobutyl, 1-methylxanthine (IBMX), 10 mM theophylline, 3 mM GTP, hormone (in 0.03 ml containing 2.5 mM ascorbic acid and 0.1% bovine serum albumin), and 0.06 ml of P1 fraction (40 to 60 ug of protein). The reaction (4 minutes at 30°C) was started by addition of GTP and terminated by addition of 0.3 ml of 150 mM sodium acetate (pH 4.0) and boiling for 3 minutes. Cyclic GMP formed was subsequently measured by radioimmunoassay as described in example 6, infra. Under these conditions, guanylate cyclase activity was linear with time and tissue concentration. Adenylate cyclase activity in P1 fractions was measured according to the method described by Nathanson, et al., Science; 204:843 (1979); Mol. Pharmacol. 18:199 (1980), see Figure 1C . […] Neurosci. […]

[2] = system: rabbits; assay: CSF production by ventricular-cisternal perfusion after intraventricular drug; assay type: in vivo, rabbit
Description: Drug was given intraventricularly, either by bolus injection or by continuous addition (during a 10-minute period) to the CSF perfusion system. Ventricular-cisternal perfusion of Blue dextran was carried out by a closed system with active pumping both into and out of the catheters at a rate of […]. Output dye concentration was monitored continuously with an in-line photocell; and a separate, contralateral venticular catheter independently measured intracranial pressure. […] Drug was administered in an artificial CSF containing 0.01% rabbit serum albumin (RSA) and 0.25 mM ascorbate. […] In one animal, there was no change in CSF secretion rate, and in no case was there an increase in CSF production. […] During a period of 100 minutes, secretion rate dropped by 70%.

[3] = system: rabbits; assay: Peripheral blood pressure after intravenous injection; assay type: in vivo, rabbit; conditions: intravenous injection of similar doses
[4] = system: guanylate cyclase; assay: Ciliary process guanylate cyclase activity (Tables 2 and 3); assay type: biochemical
[5] = system: adenylate cyclase; assay: Adenylate cyclase activity in P1 fractions of whole choroid; assay type: biochemical, rabbit; conditions: rANP at high concentrations
Description: as §1

Ser-Leu-Arg-Arg-atriopeptin III (APIII) [rANP 1-28]
maximum velocity of enzyme activity (Vmax) [1]: 215 % of control | mean decrease in rate of CSF production ([2]; 13 positive responses, SEM, 30 pmol bolus or 3 to 30 pmol/min for 10 minutes intraventricular): 35.3% ± 6.9% | drop of CSF secretion rate ([2]; bolus injection of 30 pmol into the lateral ventricle, during 100 minutes, Fig. 3): 70% | positive responses (decrease in CSF production) ([2]; intraventricular bolus or infusion): 13 of 14 | peripheral blood pressure [3]: no change | CILIARY PROCESS GUANYLATE CYCLASE ACTIVITY (Percent Increase) ([4]; Table 2, 10⁻⁶M): 60 ± 27 Percent Increase | CILIARY PROCESS GUANYLATE CYCLASE ACTIVITY (Percent Increase) ([4]; Table 3, concentration not given): 74 Percent Increase | effect on adenylate cyclase activity [5]: small inhibition
